Test system: NKT cells
Assay: In vivo cytokine assay (serum IL-2, IFN-γ, IL-4 after intraperitoneal injection)
Design: species or system mice
Conditions: 1 μg per mouse intraperitoneally
Method: To investigate the relevance of structural variation to immunomodulatory function, an in vitro panel screening assay of synthetic BfaGCs was carried out in a co-culture system with bone marrow-derived dendritic cells (BMDCs) and NKT cells. Levels of interleukin 2 (IL-2) production in the presence of individual BfaGCs clearly distinguished two groups with different levels of NKT cell recognition: strong and weak stimulators (FIG. 3A). Strikingly, all 10 strong stimulators have branched (either ω-2 or ω-3) sphinganine chains, whereas none of 11 weak stimulators have such branching. […] These molecules were individually injected into mice (1 μg per mouse, intraperitoneally), and systemic levels of cytokines were quantified and directly compared to those in mice injected with KRN7000 (a prototypic Th1 agonist) and mice injected with OCH (a Th2 agonist). Serum IL-2 levels 2 h after injection show trends consistent with in vitro results (KRN7000>SB2217>SB2219), which implies that BfaGCs are also functioning in vivo (FIG. 3B). […] Although It is well established that aGCs with very long fatty acyl chains (e.g., KRN7000, which has a C26 saturated chain) selectively induce Th1-type cytokines and that shorter-sphingoid-chain aGCs (e.g., OCH, which has a C8 saturated chain) skew toward Th2, aGCs with acyl and sphingoid chain lengths of long-chain fatty acids (C15-C19), prominently identified in B. fragilis, are less well investigated (21).
Mice (n=4 per group) were given 100 uL of KRN7000, OCH, SB2217 or SB2219 solution (1 ug, 0.9% DMSO in PBS) intraperitoneally. Animals were bled at 2 hours after injection from tail vein (˜100 uL per animal). At 18 hours after injection, animals were euthanized and second 100 uL blood was drawn by cardiac puncture. Fresh blood was collected to Z-Gel tubes (Sarstedt) to form blood clot and spun at 10,000×g for 5 minutes for serum separation. Samples were frozen at −80 degree until analysis by multiplex ELISA (Eve Technologies, Calgary, Canada).

[1] = serum at observed time points (2 and 18 hours)

Row | SMILES | Th2 cytokine (IL-4) induction in vivo [1] | serum IL-2 level (2 h after injection) | Th1 cytokine (IFN-γ) induction in vivo [1]
1 | CCCCCCCCCCCCCCCCCCCCCCCC(=O)N[C@@H](CO[C@H]1O[C@H](CO)[C@H](O)[C@H](O)[C@H]1O)[C@H](O)[C@H](O)CCCCC [OCH] | stimulates IL-4 | – | –
2 | CCCCCCCCCCCCCCCCCCCCCCCCCC(=O)N[C@@H](CO[C@H]1O[C@H](CO)[C@H](O)[C@H](O)[C@H]1O)[C@H](O)[C@H](O)CCCCCCCCCCCCCC [KRN7000] | – | KRN7000>SB2217>SB2219 | stimulates IFN-gamma
